Test results reported in paper PMC8708274, “Unveiling the Membrane and Cell Wall Action of Antimicrobial Cyclic Lipopeptides: Modulation of the Spectrum of Activity” (Pharmaceutics, 2021).
Where two headings read alike, the source gives them in different places. Positions of bridges follow the written chain, without caps; N, C: chain ends. Non-standard residues stand in square brackets, D forms with d. Residues, ends and D or L forms follow the SMILES beside them. *: point of attachment. Lauroyl = CCCCCCCCCCCC(=O)*; Decanoyl = CCCCCCCCCC(=O)*; Nonanoyl = CCCCCCCCC(=O)*; Nle = CCCC[C@H](N)C(=O)O; Octanoyl = CCCCCCCC(=O)*; Dab = NCC[C@H](N)C(=O)O; Hexanoyl = CCCCCC(=O)*

Columns and labels:
[1] = Kinetics of insertion into monolayers; assay type: binding; details: 25 min after injection, 10 mM Tris pH 7.4, 25 °C, average of three independent experiments (error < 10%); for Increase in surface pressure (Δπ), POPE/POPG: POPE/POPG 6:4, initial pressure 32 mN·m^−1, peptide 0.48 μM; for Increase in surface pressure (Δπ), POPC / Increase in surface pressure (Δπ), POPG: initial pressure 32 mN·m^−1, peptide 0.48 μM
Method: (§1) Monolayer studies were performed at room temperature (25 °C) on a monolayer system (NIMA Technology, Coventry, UK) by using a cylindrical PTFE (Teflon®, Wilmington, DE, USA) trough (5 cm diameter) containing a continuously stirred aqueous phase (12 mL, 10 mM Tris pH 7.4) and a Wilhelmy platinum plate connected to an electrobalance. The system was enclosed in a Plexiglass box to reduce surface contamination, and before each run, the plate and the trough were cleaned with hot water at >70 °C to avoid carryover of lipid or peptide. Monolayers of POPG, POPE/POPG (6:4), POPC, or LPS were formed by applying small drops of the lipid stock solutions in CHCl3 on the aqueous subphase with a microsyringe (Hamilton Co., Reno, NV, USA) to achieve a surface pressure of 32 mN·m^−1. After 10 min, allowing for solvent evaporation, a known aliquot of peptide was added without disturbance of the monolayer via an inlet port, and the surface pressure was continuously monitored.

[2] = system: Pseudomonas aeruginosa ATTC 27853; assay type: cell-based
Method: (§2) The minimal peptide concentration required to prevent the growth of a given test organism was determined after incubation overnight at 37 °C and was defined as the MIC. Activity was determined in representative bacteria, Escherichia coli ATTC 25922, Pseudomonas aeruginosa ATTC 27853, and Staphylococcus aureus ATTC 25923, using the broth microdilution method. Serial-two-fold dilutions of peptide (from 0.06 to 32 μg/mL) were performed in Mueller–Hinton broth (MHB) culture medium in sterile 96-well polypropylene microtiter plates inoculated with a final concentration of 5 × 10^5 CFU·mL^−1 of bacteria in each well. Bacteria were in the pre-exponential phase. Each determination was done by triplicate. In order to be considered acceptable, the three MIC results have to differ in only in one well, and the result was always given as the higher of the three. Drug-free and microorganism-free wells were used as positive and negative controls, respectively. Bacterial growth was visually determined on the basis of turbidity.

[3] = system: Staphylococcus aureus ATTC 25923; assay type: cell-based
Method: as §2

[4] = system: Escherichia coli ATTC 25922; assay type: cell-based
Method: as §2

[5] = Kinetics of insertion into monolayers; assay type: binding, Salmonella enterica serotype Minnesota Re 595; details: initial pressure 32 mN·m^−1, peptide 0.48 μM, 25 min after injection, 10 mM Tris pH 7.4, 25 °C, average of three independent experiments (error < 10%)
Method: as §1

[6] = broth microdilution, MHB, 5 × 10^5 CFU/mL, overnight 37 °C, triplicate, higher of the three

SMILES | Increase in surface pressure (Δπ), POPE/POPG [1] [mN·m^−1] | Increase in surface pressure (Δπ), POPC [1] [mN·m^−1] | Increase in surface pressure (Δπ), POPG [1] [mN·m^−1] | MIC PA ([2]; ATTC 27853) [µM] | MIC PA [2, 6] [µg/mL] | MIC SA ([3]; ATTC 25923) [µM] | MIC SA [3, 6] [µg/mL] | MIC EC ([4]; ATTC 25922) [µM] | MIC EC [4, 6] [µg/mL] | Increase in surface pressure (Δπ), LPS [5] [mN·m^−1]
CCCCCC(=O)N[C@@H](CCN)C(=O)N[C@H](C(=O)N[C@@H](CCN)C(=O)N[C@H]1CSSC[C@H](C(N)=O)NC(=O)[C@H](CCN)NC(=O)[C@H](CCN)NC(=O)[C@H](CC(C)C)NC(=O)[C@@H](Cc2ccccc2)NC(=O)[C@H](CCN)NC1=O)[C@@H](C)O [spB-1] (Hexanoyl-[Dab]T[Dab]C[Dab][dF]L[Dab][Dab][dC]-NH2; disulfide 4-10) | 4.6 | 0.9 | 5.7 | > 27 | > 32 | > 27 | > 32 | > 27 | > 32 | 12.1
CCCCCCCC(=O)N[C@@H](CCN)C(=O)N[C@H](C(=O)N[C@@H](CCN)C(=O)N[C@H]1CSSC[C@H](C(N)=O)NC(=O)[C@H](CCN)NC(=O)[C@H](CCN)NC(=O)[C@H](CC(C)C)NC(=O)[C@@H](Cc2ccccc2)NC(=O)[C@H](CCN)NC1=O)[C@@H](C)O [spB-2] (Octanoyl-[Dab]T[Dab]C[Dab][dF]L[Dab][Dab][dC]-NH2; disulfide 4-10) | 5.5 | 1.8 | 7.0 | 6.6 | 8 | 26 | > 32 | 13 | 16 | 12.6
CCCCCCCCCCCC(=O)N[C@@H](CCN)C(=O)N[C@H](C(=O)N[C@@H](CCN)C(=O)N[C@H]1CSSC[C@H](C(N)=O)NC(=O)[C@H](CCN)NC(=O)[C@H](CCN)NC(=O)[C@H](CC(C)C)NC(=O)[C@@H](Cc2ccccc2)NC(=O)[C@H](CCN)NC1=O)[C@@H](C)O [spB-4] (Lauroyl-[Dab]T[Dab]C[Dab][dF]L[Dab][Dab][dC]-NH2; disulfide 4-10) | 5.0 | 2.5 | 6.7 | 6.3 | 8 | 6.3 | 8 | 13 | 16 | 12.2
CCCCCCCC(=O)N[C@@H](CCN)C(=O)N[C@H](C(=O)N[C@@H](CCN)C(=O)N[C@H]1CSSC[C@H](C(N)=O)NC(=O)[C@H](CCN)NC(=O)[C@H](CCN)NC(=O)[C@H](CCCC)NC(=O)[C@@H](Cc2ccccc2)NC(=O)[C@H](CCN)NC1=O)[C@@H](C)O [spB-5] (Octanoyl-[Dab]T[Dab]C[Dab][dF][Nle][Dab][Dab][dC]-NH2; disulfide 4-10) | 6.5 | 0.8 | 7.3 | 3.3 | 4 | > 26 | > 32 | 1.7 | 2 | 10.6
CCCCCCCCC(=O)N[C@@H](CCN)C(=O)N[C@H](C(=O)N[C@@H](CCN)C(=O)N[C@H]1CSSC[C@H](C(N)=O)NC(=O)[C@H](CCN)NC(=O)[C@H](CCN)NC(=O)[C@H](CCCC)NC(=O)[C@@H](Cc2ccccc2)NC(=O)[C@H](CCN)NC1=O)[C@@H](C)O [spB-6] (Nonanoyl-[Dab]T[Dab]C[Dab][dF][Nle][Dab][Dab][dC]-NH2; disulfide 4-10) | 5.0 | 0.4 | 6.0 | 0.82 | 1 | 13 | 16 | 1.6 | 2 | 10.8
CCCCCCCCCCCC(=O)N[C@@H](CCN)C(=O)N[C@H](C(=O)N[C@@H](CCN)C(=O)N[C@H]1CSSC[C@H](C(N)=O)NC(=O)[C@H](CCN)NC(=O)[C@H](CCCNC(=N)N)NC(=O)[C@H](CCCC)NC(=O)[C@@H](Cc2ccccc2)NC(=O)[C@H](CCN)NC1=O)[C@@H](C)O [spB-9] (Lauroyl-[Dab]T[Dab]C[Dab][dF][Nle]R[Dab][dC]-NH2; disulfide 4-10) | 6.0 | 2.2 | 3.4 | 3.0 | 4 | 1.5 | 2 | 3.0 | 4 | 11.1
CCCCCC(=O)N[C@@H](CCN)C(=O)N[C@H](C(=O)N[C@@H](CCN)C(=O)N[C@H]1CSSC[C@H](C(N)=O)NC(=O)[C@H](CCN)NC(=O)[C@H](CCN)NC(=O)[C@H](CC(C)C)NC(=O)[C@@H](CC(C)C)NC(=O)[C@H](CCN)NC1=O)[C@@H](C)O [spE-1] (Hexanoyl-[Dab]T[Dab]C[Dab][dL]L[Dab][Dab][dC]-NH2; disulfide 4-10) | 4.1 | 0.3 | 2.8 | > 28 | > 32 | > 28 | > 32 | > 28 | > 32 | 10.6
CCCCCCCC(=O)N[C@@H](CCN)C(=O)N[C@H](C(=O)N[C@@H](CCN)C(=O)N[C@H]1CSSC[C@H](C(N)=O)NC(=O)[C@H](CCN)NC(=O)[C@H](CCN)NC(=O)[C@H](CC(C)C)NC(=O)[C@@H](CC(C)C)NC(=O)[C@H](CCN)NC1=O)[C@@H](C)O [spE-2] (Octanoyl-[Dab]T[Dab]C[Dab][dL]L[Dab][Dab][dC]-NH2; disulfide 4-10) | 6.4 | 0.6 | 4.3 | 3.4 | 4 | > 27 | > 32 | 14 | 16 | 9.5
CCCCCCCCCC(=O)N[C@@H](CCN)C(=O)N[C@H](C(=O)N[C@@H](CCN)C(=O)N[C@H]1CSSC[C@H](C(N)=O)NC(=O)[C@H](CCN)NC(=O)[C@H](CCN)NC(=O)[C@H](CC(C)C)NC(=O)[C@@H](CC(C)C)NC(=O)[C@H](CCN)NC1=O)[C@@H](C)O [spE-3] (Decanoyl-[Dab]T[Dab]C[Dab][dL]L[Dab][Dab][dC]-NH2; disulfide 4-10) | 7.9 | 1.3 | 5.7 | 1.7 | 2 | 6.7 | 8 | 6.7 | 8 | 10.0
